Results as given in ChEMBL document CHEMBL1201862, “PubChem BioAssay data set” (2004).
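Method: 48-hour compound exposure of cells in 96-well plates, five concentrations, linear interpolation of endpoints. The concentration for 50% growth inhibition is given as GI50.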 The source made the active and inactive calls. Cut-off read from the data, not from the text of the source: active = GI50 up to about 1.1 µM and inactive = higher.

How the values were obtained:
Assay in all cases: inhibition of tumour cell growth, NCI panel, 48 h
NCI-H522 = system: NCI-H522
HOP-92 = system: HOP-92
SK-MEL-2 = system: SK-MEL-2
HT-29 = system: HT-29
CCRF-CEM = system: CCRF-CEM
SR = system: SR
NCI-H226 = system: NCI-H226
Malme-3M = system: Malme-3M
OVCAR-4 = system: OVCAR-4
HCT-15 = system: HCT-15
HCT-116 = system: HCT-116
SNB-75 = system: SNB-75
TK-10 = system: TK-10
KM12 = system: KM12
DLD-1 = system: DLD-1

Which results are given for N#CC1=C(O)NC(O)=C(C#N)C1c1c(Cl)cccc1Cl?
GI50 (NCI-H522): 35.2 µM (inactive); GI50 (HOP-92): 15.8 µM (inactive); GI50 (SK-MEL-2): 18.8 µM (inactive); GI50 (HT-29): 39.4 µM (inactive); GI50 (CCRF-CEM): > 100 µM (inactive); GI50 (SR): > 100 µM (inactive); GI50 (NCI-H226): 17.9 µM (inactive); GI50 (Malme-3M): 23.1 µM (inactive); GI50 (OVCAR-4): 67.8 µM (inactive); GI50 (HCT-15): 20.4 µM; GI50 (HCT-116): 29 µM (inactive); GI50 (SNB-75): 11.7 µM (inactive); GI50 (TK-10): 40.4 µM (inactive); GI50 (KM12): 22.1 µM (inactive); GI50 (DLD-1): 16.7 µM (inactive)
